From patent US20240398805A1, “QUINAZOLINE DERIVED COMPOUNDS AS EGFR INHIBITORS AND THEIR USES THEREOF” (ACCUTAR BIOTECHNOLOGY INC., priority 2021, published 2024)

Legend:
Type in all cases: cell-based
HCC827 cells = assay: Cell growth inhibition (CellTiter-Glo, 3 days) in HCC827; conditions: Homo sapiens, 72 h, 3 days after administration
Outline: (§1)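 HCC827 cells were plated at 5000 cells/well in RPMI with 10% FBS, and A431 cells at the same density in DMEM with 10% FBS. After overnight attachment, compounds were added at various concentrations. Luminescence was recorded after plates were equilibrated to room temperature and incubated 10 min with reagent.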

[1] = test system: HCC827-SVD cells (human EGFR exon 20 insertion mutant D770_N771 insSVD); assay: Cell growth inhibition (CellTiter-Glo, 3 days) in HCC827-SVD; conditions: 72 h, 3 days after administration
Outline: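 HCC827 cells carrying lentiviral codon-optimized EGFR D770_N771 insSVD, with endogenous EGFR knocked out by CRISPR (single clone), seeded at 5000 cells/well in RPMI with 10% FBS. Viability read by CellTiter-Glo luminescence.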

[2] = test system: HCC827-ASV cells (human EGFR exon 20 insertion mutant A769_D770insASV); assay: Cell growth inhibition (CellTiter-Glo, 3 days) in HCC827-ASV; conditions: 72 h, 3 days after administration
Outline: (§2)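 Growth inhibition used a CellTiter-Glo luminescence read-out after 3 days of compound exposure at various concentrations. Cells were plated the day before at 5000/well in RPMI plus 10% FBS. The lines are HCC827 transduced by lentivirus with codon-optimized EGFR ASV or ERBB2 YVMA exon 20 insertions.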

[3] = test system: HCC827-YVMA cells (human ERBB2 exon20 insertion mutant A775_G776ins YVMA); assay: Cell growth inhibition (CellTiter-Glo, 3 days) in HCC827-YVMA; conditions: 72 h, 3 days after administration
Outline: as §2

A431 cells = assay: Cell growth inhibition (CellTiter-Glo, 3 days) in A431; conditions: Homo sapiens, A-431, 72 h, 3 days after administration
Outline: as §1

SMILES	GI50 (HCC827 cells)	GI50 [1]	GI50 [2]	GI50 [3]	GI50 (A431 cells)
C=CC(=O)N1CCC(Nc2cc3c(Nc4ccc(Oc5ccn6ncnc6c5)c(Cl)c4)ncnc3cc2OC)CC1 [Compound 7, 1-(4-((4-((4-([1,2,4]triazolo[1,5-a]pyridin-7-yloxy)-3-chlorophenyl)amino)-7-methoxyquinazolin-6-yl)amino)piperidin-1-yl)prop-2-en-1-one]	< 30 nM	< 30 nM	< 30 nM	< 30 nM	< 30 nM
C=CC(=O)N1CCC(Nc2cc3c(Nc4ccc(Oc5ccnc(N6C[C@@H](C)N[C@@H](C)C6)c5)cc4F)ncnc3cc2OC)CC1 [Example 154, 1-(4-((4-((4-((2-((3R,5S)-3,5-dimethylpiperazin-1-yl)pyridin-4-yl)oxy)-2-fluorophenyl)amino)-7-methoxyquinazolin-6-yl)amino)piperidin-1-yl)prop-2-en-1-one]	≥ 1000 nM	300 to 600 nM	100 to 300 nM	300 to 600 nM	≥ 1000 nM
C=CC(=O)N1CCC(Nc2cc3c(Nc4ccc(Oc5ccnc(-c6nc(C)c(C)s6)c5)cc4F)ncnc3cc2OC)CC1 [Example 176, 1-(4-((4-((4-((2-(4,5-dimethylthiazol-2-yl)pyridin-4-yl)oxy)-2-fluorophenyl)amino)-7-methoxyquinazolin-6-yl)amino)piperidin-1-yl)prop-2-en-1-one]	100 to 300 nM	30 to 60 nM	< 30 nM	< 30 nM	600 to 1000 nM
C=CC(=O)N1CCC(Nc2cc3c(Nc4ccc(Oc5ccnc(NC(C)(C)C)c5)cc4F)ncnc3cc2OC)CC1 [Example 245, 1-(4-((4-((4-((2-(tert-butylamino)pyridin-4-yl)oxy)-2-fluorophenyl)amino)-7-methoxyquinazolin-6-yl)amino)piperidin-1-yl)prop-2-en-1-one]	100 to 300 nM	30 to 60 nM	< 30 nM	< 30 nM	300 to 600 nM
C=CC(=O)N1CCC(Nc2cc3c(Nc4cc(Cl)c(Oc5ccn(-c6cnc(C)c(F)c6)n5)cc4F)ncnc3cc2OC)CC1 [Example 19, 1-(4-((4-((5-chloro-2-fluoro-4-((1-(5-fluoro-6-methylpyridin-3-yl)-1H-pyrazol-3-yl)oxy)phenyl)amino)-7-methoxyquinazolin-6-yl)amino)piperidin-1-yl)prop-2-en-1-one]	< 30 nM	30 to 60 nM	30 to 60 nM	60 to 100 nM	100 to 300 nM
C=CC(=O)N1CCC(Nc2cc3c(Nc4ccc(Oc5ccnc(C6=CCN(C)CC6)c5)cc4F)ncnc3cc2OC)CC1 [Example 213, 1-(4-((4-((2-fluoro-4-((1′-methyl-1′,2′,3′,6′-tetrahydro-[2,4′-bipyridin]-4-yl)oxy)phenyl)amino)-7-methoxyquinazolin-6-yl)amino)piperidin-1-yl)prop-2-en-1-one]	300 to 600 nM	300 to 600 nM	100 to 300 nM	300 to 600 nM	≥ 1000 nM
C=CC(=O)N1CC2(CC(Nc3cc4c(Nc5ccc(Oc6ccn(-c7cnc(OC)nc7)n6)cc5F)ncnc4cc3OC)C2)C1 [Compound 84, 1-(6-((4-((2-fluoro-4-((1-(2-methoxypyrimidin-5-yl)-1H-pyrazol-3-yl)oxy)phenyl)amino)-7-methoxyquinazolin-6-yl)amino)-2-azaspiro[3.3]heptan-2-yl)prop-2-en-1-one]	≥ 1000 nM	≥ 1000 nM	≥ 1000 nM	≥ 1000 nM	≥ 1000 nM
C=CC(=O)N1CCC(Nc2cc3c(Nc4ccc(Oc5ccnc(N(C)C)c5)cc4F)ncnc3cc2OC)CC1 [Example 103, 1-(4-((4-((4-((2-(dimethylamino)pyridin-4-yl)oxy)-2-fluorophenyl)amino)-7-methoxyquinazolin-6-yl)amino)piperidin-1-yl)prop-2-en-1-one]	30 to 60 nM	< 30 nM	< 30 nM	< 30 nM	100 to 300 nM
C=CC(=O)N1CCC(Nc2cc3c(Nc4ccc(OCc5ccccn5)c(Cl)c4)ncnc3cc2OCCN(C)C)CC1 [Example 96, 1-(4-((4-((3-chloro-4-(pyridin-2-ylmethoxy)phenyl)amino)-7-(2-(dimethylamino)ethoxy)quinazolin-6-yl)amino)piperidin-1-yl)prop-2-en-1-one]	60 to 100 nM	100 to 300 nM	100 to 300 nM	100 to 300 nM	300 to 600 nM
C=CC(=O)N1CCC(Nc2cc3c(Nc4ccc(Oc5ccn(-c6cnc(C)cc6C)n5)cc4F)ncnc3cc2OC)CC1 [Example 37, 1-(4-((4-((4-((1-(4,6-dimethylpyridin-3-yl)-1H-pyrazol-3-yl)oxy)-2-fluorophenyl)amino)-7-methoxyquinazolin-6-yl)amino)piperidin-1-yl)prop-2-en-1-one]	30 to 60 nM	< 30 nM	< 30 nM	< 30 nM	300 to 600 nM
C=CC(=O)N1CCC(Nc2cc3c(Nc4ccc(Oc5ccnc(N6CCC(C)(C#N)C6)c5)cc4F)ncnc3cc2OC)CC1 (centres unmarked) [Example 262, 1-(4-(4-((6-((1-acryloylpiperidin-4-yl)amino)-7-methoxyquinazolin-4-yl)amino)-3-fluorophenoxy)pyridin-2-yl)-3-methylpyrrolidine-3-carbonitrile]	30 to 60 nM	< 30 nM	30 to 60 nM	30 to 60 nM	600 to 1000 nM
C=CC(=O)N1CCC(Nc2cc3c(Nc4ccc(Oc5ccnc(N6CCC(OC)C(C)(C)C6)c5)cc4F)ncnc3cc2OC)CC1 (centres unmarked) [Example 159, 1-(4-((4-((2-fluoro-4-((2-(4-methoxy-3,3-dimethylpiperidin-1-yl)pyridin-4-yl)oxy)phenyl)amino)-7-methoxyquinazolin-6-yl)amino)piperidin-1-yl)prop-2-en-1-one]	100 to 300 nM	30 to 60 nM	30 to 60 nM	60 to 100 nM	300 to 600 nM
C=CC(=O)N1CCC(Nc2cc3c(Nc4ccc(Oc5ccnc(CN6CCOCC6)c5)cc4F)ncnc3cc2OC)CC1 [Compound 210, 1-(4-((4-((2-fluoro-4-((2-(morpholinomethyl)pyridin-4-yl)oxy)phenyl)amino)-7-methoxyquinazolin-6-yl)amino)piperidin-1-yl)prop-2-en-1-one]	300 to 600 nM	60 to 100 nM	30 to 60 nM	< 30 nM	600 to 1000 nM
C=CC(=O)N1CCC(Nc2cc3c(Nc4ccc(Oc5ccnc(N6C[C@@H](F)[C@@H](F)C6)c5)cc4F)ncnc3cc2OC)CC1 [Example 253, 1-(4-((4-((4-((2-((3S,4R)-3,4-difluoropyrrolidin-1-yl)pyridin-4-yl)oxy)-2-fluorophenyl)amino)-7-methoxyquinazolin-6-yl)amino)piperidin-1-yl)prop-2-en-1-one]	100 to 300 nM	30 to 60 nM	30 to 60 nM	30 to 60 nM	300 to 600 nM
C=CC(=O)N1CCC(Nc2cc3c(Nc4ccc(Oc5ccnc(N6CCC(CO)(CO)C6)c5)cc4F)ncnc3cc2OC)CC1 [Example 155, 1-(4-((4-((4-((2-(3,3-bis(hydroxymethyl)pyrrolidin-1-yl)pyridin-4-yl)oxy)-2-fluorophenyl)amino)-7-methoxyquinazolin-6-yl)amino)piperidin-1-yl)prop-2-en-1-one]	≥ 1000 nM	100 to 300 nM	100 to 300 nM	100 to 300 nM	≥ 1000 nM
C=CC(=O)N1CCC(Nc2cc3c(Nc4ccc(Oc5ccnc(NC6CCC6)c5)cc4F)ncnc3cc2OC)CC1 [Compound 243, 1-(4-((4-((4-((2-(cyclobutylamino)pyridin-4-yl)oxy)-2-fluorophenyl)amino)-7-methoxyquinazolin-6-yl)amino)piperidin-1-yl)prop-2-en-1-one]	30 to 60 nM	< 30 nM	< 30 nM	< 30 nM	300 to 600 nM
C=CC(=O)N1CCC(Nc2cc3c(Nc4ccc(Oc5ccnc(N6CC(OC(C)C)C6)c5)cc4F)ncnc3cc2OC)CC1 [Example 148, 1-(4-((4-((2-fluoro-4-((2-(3-isopropoxyazetidin-1-yl)pyridin-4-yl)oxy)phenyl)amino)-7-methoxyquinazolin-6-yl)amino)piperidin-1-yl)prop-2-en-1-one]	100 to 300 nM	30 to 60 nM	30 to 60 nM	30 to 60 nM	300 to 600 nM
C=CC(=O)N1CCC(Oc2cc3c(Nc4ccc(Oc5ccnc(N6C[C@@H](C)O[C@@H](C)C6)c5)cc4F)ncnc3cc2OC)CC1 [Example 152, 1-(4-((4-((4-((2-((2R,6S)-2,6-dimethylmorpholino)pyridin-4-yl)oxy)-2-fluorophenyl)amino)-7-methoxyquinazolin-6-yl)oxy)piperidin-1-yl)prop-2-en-1-one]	600 to 1000 nM	60 to 100 nM	< 30 nM	60 to 100 nM	≥ 1000 nM
C=CC(=O)N1CCC(Nc2cc3c(Nc4ccc(Oc5ccnc(C6CCN(C)CC6)c5)cc4F)ncnc3cc2OC)CC1 [Example 186, 1-(4-((4-((2-fluoro-4-((2-(1-methylpiperidin-4-yl)pyridin-4-yl)oxy)phenyl)amino)-7-methoxyquinazolin-6-yl)amino)piperidin-1-yl)prop-2-en-1-one]	600 to 1000 nM	≥ 1000 nM	≥ 1000 nM	≥ 1000 nM	≥ 1000 nM
